This is an account of results in ChEMBL document CHEMBL3991601, “The target landscape of clinical kinase drugs” (Science, 2017).

The target of experiment [1] is T1, General transcription and DNA repair factor IIH helicase subunit XPD (Homo sapiens, UniProt P18074).
T1 sequence (P18074 whole entry): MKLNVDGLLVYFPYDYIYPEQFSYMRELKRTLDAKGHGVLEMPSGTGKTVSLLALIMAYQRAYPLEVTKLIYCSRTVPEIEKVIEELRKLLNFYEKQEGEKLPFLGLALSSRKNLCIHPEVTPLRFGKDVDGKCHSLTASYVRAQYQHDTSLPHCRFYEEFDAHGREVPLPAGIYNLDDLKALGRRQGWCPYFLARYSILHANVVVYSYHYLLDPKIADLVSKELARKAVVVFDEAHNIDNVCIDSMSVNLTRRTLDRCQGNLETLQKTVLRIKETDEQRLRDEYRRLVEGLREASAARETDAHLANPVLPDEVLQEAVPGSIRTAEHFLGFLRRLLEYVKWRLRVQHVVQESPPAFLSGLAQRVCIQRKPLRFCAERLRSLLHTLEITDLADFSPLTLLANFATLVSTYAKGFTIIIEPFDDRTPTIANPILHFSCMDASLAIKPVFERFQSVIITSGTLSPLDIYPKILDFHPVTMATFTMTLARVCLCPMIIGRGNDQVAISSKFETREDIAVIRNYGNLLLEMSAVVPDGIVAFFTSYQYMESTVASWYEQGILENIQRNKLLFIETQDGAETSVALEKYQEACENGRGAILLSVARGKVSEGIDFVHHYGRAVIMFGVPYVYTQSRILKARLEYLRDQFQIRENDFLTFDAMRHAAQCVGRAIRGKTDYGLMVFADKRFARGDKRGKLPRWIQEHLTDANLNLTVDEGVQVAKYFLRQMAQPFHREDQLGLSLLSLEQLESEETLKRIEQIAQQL
The following applies: read-out: Kd apparent; k-562, colo 205, sk-n-be(2) and mv-4-11.

The target of experiment [2] is Tyrosine-protein kinase Fer (Homo sapiens, UniProt P16591).
Another experiment has as its target T2, Aurora kinase A (Homo sapiens, UniProt O14965).
T2 sequence (O14965 whole entry): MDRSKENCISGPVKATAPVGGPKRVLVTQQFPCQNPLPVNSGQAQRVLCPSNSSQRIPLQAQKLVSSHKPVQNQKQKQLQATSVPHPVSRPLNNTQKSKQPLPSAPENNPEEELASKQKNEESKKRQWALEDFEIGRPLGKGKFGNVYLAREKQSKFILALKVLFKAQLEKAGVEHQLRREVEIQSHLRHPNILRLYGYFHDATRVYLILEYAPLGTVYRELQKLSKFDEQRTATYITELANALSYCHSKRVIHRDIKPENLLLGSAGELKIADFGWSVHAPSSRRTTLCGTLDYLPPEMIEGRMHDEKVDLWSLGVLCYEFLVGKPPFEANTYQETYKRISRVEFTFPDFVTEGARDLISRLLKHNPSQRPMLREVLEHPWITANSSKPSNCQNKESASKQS

Experiment [3] concerns the target T3, Serine/threonine-protein kinase 3 (Homo sapiens, UniProt Q13188).
T3 sequence (Q13188 whole entry): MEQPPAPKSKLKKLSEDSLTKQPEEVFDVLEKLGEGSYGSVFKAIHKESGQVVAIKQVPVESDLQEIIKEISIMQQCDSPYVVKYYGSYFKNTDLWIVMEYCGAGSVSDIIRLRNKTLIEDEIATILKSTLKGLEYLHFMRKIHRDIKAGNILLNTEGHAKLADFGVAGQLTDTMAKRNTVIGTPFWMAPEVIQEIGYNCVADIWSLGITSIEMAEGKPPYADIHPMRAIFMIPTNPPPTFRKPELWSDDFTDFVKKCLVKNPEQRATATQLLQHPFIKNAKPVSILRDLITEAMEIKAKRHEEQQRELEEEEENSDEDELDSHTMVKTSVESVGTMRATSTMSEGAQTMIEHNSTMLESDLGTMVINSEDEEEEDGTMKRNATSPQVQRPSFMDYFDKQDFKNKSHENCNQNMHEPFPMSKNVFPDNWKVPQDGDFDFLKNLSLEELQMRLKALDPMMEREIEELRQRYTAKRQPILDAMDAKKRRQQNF

In experiment [4] the target is Mitotic checkpoint serine/threonine-protein kinase BUB1 (Homo sapiens, UniProt O43683).
The target in experiment [5] is Cyclin-dependent kinase 1 (Homo sapiens, UniProt P06493).
Experiment [6] deals with Tyrosine-protein kinase BTK (Homo sapiens, UniProt Q06187).
In experiment [7] the target is T4, ATP-dependent RNA helicase DDX42 (Homo sapiens, UniProt Q86XP3).
T4 sequence (Q86XP3 whole entry): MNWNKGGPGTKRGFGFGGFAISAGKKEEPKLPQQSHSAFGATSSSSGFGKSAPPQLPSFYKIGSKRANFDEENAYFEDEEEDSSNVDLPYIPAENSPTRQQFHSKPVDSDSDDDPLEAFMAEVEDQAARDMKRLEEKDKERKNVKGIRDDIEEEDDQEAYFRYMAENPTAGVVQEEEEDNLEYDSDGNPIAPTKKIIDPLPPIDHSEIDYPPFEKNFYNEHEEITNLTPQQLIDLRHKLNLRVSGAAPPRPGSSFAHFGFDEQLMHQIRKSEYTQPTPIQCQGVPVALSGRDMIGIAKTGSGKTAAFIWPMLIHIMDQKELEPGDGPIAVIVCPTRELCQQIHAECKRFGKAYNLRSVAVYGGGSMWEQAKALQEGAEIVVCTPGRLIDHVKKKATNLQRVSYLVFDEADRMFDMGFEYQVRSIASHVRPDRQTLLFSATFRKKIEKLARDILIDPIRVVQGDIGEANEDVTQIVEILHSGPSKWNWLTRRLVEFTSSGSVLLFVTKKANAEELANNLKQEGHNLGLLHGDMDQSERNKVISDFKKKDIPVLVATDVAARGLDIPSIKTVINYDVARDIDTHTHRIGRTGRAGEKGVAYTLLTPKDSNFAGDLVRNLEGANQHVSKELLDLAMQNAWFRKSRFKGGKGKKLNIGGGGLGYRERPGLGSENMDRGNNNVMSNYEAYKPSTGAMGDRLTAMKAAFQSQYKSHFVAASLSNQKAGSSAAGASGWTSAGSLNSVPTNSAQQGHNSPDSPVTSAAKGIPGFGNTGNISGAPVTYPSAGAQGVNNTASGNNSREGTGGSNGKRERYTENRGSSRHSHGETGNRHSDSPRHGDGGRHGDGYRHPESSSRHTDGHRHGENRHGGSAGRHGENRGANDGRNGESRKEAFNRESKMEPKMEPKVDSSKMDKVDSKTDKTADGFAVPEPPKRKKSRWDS

Calls of active or inactive are those of the source. Rule as the data show it, for most assays here: actives have a measured Kd and inactives only a lower limit. Some results are limits rather than exact numbers.
Also: in the data inactive means no Kd found up to 30 µM.

Sequence of Mitotic checkpoint serine/threonine-protein kinase BUB1 (O43683 whole entry): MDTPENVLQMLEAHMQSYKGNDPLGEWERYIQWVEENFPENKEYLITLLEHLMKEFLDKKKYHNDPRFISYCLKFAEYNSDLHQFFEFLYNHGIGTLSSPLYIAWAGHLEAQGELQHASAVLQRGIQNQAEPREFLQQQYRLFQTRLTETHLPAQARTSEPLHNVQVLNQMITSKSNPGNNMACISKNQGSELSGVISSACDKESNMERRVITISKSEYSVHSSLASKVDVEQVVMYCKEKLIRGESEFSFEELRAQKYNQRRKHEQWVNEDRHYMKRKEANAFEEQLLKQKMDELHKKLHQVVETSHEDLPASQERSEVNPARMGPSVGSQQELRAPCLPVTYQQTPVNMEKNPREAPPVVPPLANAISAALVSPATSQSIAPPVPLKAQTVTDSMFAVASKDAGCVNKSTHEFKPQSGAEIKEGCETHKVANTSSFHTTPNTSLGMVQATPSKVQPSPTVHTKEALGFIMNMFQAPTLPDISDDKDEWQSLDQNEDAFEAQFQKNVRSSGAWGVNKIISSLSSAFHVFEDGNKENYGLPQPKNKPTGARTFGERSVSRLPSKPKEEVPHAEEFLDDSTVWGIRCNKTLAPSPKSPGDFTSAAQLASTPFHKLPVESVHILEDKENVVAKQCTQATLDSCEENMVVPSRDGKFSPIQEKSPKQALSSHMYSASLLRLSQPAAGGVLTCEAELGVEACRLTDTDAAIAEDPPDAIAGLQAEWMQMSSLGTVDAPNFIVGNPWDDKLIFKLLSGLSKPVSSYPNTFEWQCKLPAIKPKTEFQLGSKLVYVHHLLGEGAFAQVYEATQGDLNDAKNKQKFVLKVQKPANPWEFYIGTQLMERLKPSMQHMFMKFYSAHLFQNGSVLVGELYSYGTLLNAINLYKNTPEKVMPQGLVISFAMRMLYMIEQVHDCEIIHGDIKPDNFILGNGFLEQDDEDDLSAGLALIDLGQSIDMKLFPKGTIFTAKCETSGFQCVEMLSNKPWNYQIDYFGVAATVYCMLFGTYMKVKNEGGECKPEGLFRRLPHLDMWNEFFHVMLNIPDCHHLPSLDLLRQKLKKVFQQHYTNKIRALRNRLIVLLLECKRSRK
Sequence of Tyrosine-protein kinase Fer (P16591 whole entry): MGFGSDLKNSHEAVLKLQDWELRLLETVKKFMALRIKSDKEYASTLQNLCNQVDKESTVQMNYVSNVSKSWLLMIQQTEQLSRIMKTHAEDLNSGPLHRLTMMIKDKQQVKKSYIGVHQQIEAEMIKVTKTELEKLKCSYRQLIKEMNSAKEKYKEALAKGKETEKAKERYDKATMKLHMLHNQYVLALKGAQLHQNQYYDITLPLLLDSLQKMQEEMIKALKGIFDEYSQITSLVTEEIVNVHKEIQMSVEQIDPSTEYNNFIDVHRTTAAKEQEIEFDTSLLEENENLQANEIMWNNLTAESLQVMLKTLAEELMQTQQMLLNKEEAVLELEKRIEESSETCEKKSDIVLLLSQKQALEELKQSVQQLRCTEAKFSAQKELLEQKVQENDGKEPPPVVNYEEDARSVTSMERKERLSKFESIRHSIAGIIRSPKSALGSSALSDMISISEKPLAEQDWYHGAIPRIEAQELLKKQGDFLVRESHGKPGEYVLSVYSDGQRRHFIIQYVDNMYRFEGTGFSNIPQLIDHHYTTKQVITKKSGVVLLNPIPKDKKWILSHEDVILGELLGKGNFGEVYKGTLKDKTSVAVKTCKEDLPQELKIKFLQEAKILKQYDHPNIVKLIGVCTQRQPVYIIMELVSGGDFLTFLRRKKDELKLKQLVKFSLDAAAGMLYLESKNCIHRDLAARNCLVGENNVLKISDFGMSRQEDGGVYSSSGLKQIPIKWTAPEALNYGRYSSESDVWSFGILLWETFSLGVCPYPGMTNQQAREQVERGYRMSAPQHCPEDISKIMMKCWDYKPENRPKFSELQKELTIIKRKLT
Sequence of Tyrosine-protein kinase BTK (Q06187 whole entry): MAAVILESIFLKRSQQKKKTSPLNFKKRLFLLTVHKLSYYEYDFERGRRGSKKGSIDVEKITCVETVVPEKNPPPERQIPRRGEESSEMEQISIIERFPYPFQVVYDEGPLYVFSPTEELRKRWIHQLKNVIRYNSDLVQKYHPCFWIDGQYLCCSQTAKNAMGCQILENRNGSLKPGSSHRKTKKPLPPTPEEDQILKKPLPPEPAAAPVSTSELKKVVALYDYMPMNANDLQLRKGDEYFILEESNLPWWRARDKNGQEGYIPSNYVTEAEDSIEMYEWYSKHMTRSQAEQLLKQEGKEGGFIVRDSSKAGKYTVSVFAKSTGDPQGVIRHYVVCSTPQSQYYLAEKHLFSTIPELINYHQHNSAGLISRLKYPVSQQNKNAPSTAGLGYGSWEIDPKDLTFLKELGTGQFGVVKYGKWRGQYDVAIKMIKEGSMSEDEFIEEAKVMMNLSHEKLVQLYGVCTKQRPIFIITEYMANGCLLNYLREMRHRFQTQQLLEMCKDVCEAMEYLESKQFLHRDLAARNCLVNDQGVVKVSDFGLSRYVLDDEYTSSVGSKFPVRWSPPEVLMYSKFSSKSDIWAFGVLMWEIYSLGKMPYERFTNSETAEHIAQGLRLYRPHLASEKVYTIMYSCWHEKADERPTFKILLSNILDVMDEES
Sequence of Cyclin-dependent kinase 1 (P06493 whole entry): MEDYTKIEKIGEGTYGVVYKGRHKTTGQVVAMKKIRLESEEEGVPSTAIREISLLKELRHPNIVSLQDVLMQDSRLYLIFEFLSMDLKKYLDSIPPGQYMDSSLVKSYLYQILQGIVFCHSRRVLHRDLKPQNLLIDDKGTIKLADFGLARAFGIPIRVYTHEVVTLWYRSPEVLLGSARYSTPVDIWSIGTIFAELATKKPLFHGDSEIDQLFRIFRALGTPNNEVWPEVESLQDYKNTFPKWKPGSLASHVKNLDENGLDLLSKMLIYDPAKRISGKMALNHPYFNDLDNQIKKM

Consider `C[C@@H](Oc1cc(C(=O)Nc2ccc(C(=O)N3CCN(C)CC3)cc2)nnc1N)c1c(Cl)ccc(F)c1Cl`, for which the Kd (in experiment [1]; in experiment [2]; on Aurora kinase A; in experiment [3]; in experiment [4]; in experiment [5]) was > 30 µM (inactive) each time. In addition, the Kd in experiment [6] and in experiment [7] was > 30 µM (inactive) each time.
For the compound `C[C@H]1CNCCCN1S(=O)(=O)c1cccc2cncc(F)c12`, the Kd (in experiment [1]; in experiment [2]; at Aurora kinase A; in experiment [3]; in experiment [4]; in experiment [5]) was > 30 µM (inactive) throughout. In addition, the Kd in experiment [6] and in experiment [7] was > 30 µM (inactive) in each case.
`Cc1nc2cc(-c3nn(C(C)C)c4ncnc(N)c34)ccc2o1`: the Kd (in experiment [1]; in experiment [2]; on Aurora kinase A; in experiment [3]; in experiment [4]; in experiment [5]) was > 30 µM (inactive) in each case. Also, the Kd in experiment [6] and in experiment [7] was > 30 µM (inactive) throughout.
As for `Nc1ncnc2c1c(-c1cccc(OCc3ccccc3)c1)cn2[C@H]1C[C@@H](CN2CCC2)C1` [AEW-541], the Kd (in experiment [1]; in experiment [2]; at Aurora kinase A; in experiment [3]; in experiment [4]; in experiment [5]) was > 30 µM (inactive) in each case. Besides, the Kd in experiment [6] and in experiment [7] was > 30 µM (inactive) each time.
As for `C=CC(=O)Nc1cc2c(Nc3ccc(F)c(Cl)c3)ncnc2cc1C#CC(C)(C)N1CCN(C)CC1` [AV-412 FREE BASE], the Kd (in experiment [1]; in experiment [2]; at Aurora kinase A; in experiment [3]; in experiment [4]; in experiment [5]) was > 30 µM (inactive) in each case. The Kd in experiment [6] was 0.345 µM (active); in experiment [7] it was > 30 µM (inactive).
Consider `COc1cc([C@@H]2c3cc4c(cc3[C@H](O)[C@H]3COC(=O)[C@@H]23)OCO4)cc(OC)c1OC` [AXL-1717], for which the Kd (in experiment [1]; in experiment [2]; on Aurora kinase A; in experiment [3]; in experiment [4]; in experiment [5]) was > 30 µM (inactive) each time. Besides, the Kd in experiment [6] and in experiment [7] was > 30 µM (inactive) in each case.
For `Cn1cnc2c(F)c(Nc3ccc(Br)cc3F)c(C(=O)NOCCO)cc21` [BINIMETINIB], the Kd (in experiment [1]; in experiment [2]; at Aurora kinase A; in experiment [3]; in experiment [4]; in experiment [5]) was > 30 µM (inactive) each time. Besides, the Kd in experiment [6] and in experiment [7] was > 30 µM (inactive) each time.
Consider `CCn1c(C(=O)N(C2CC2)C2CC2)cc2c3c(ncn3C)c(Nc3cc(C)n(C)n3)nc21` [BMS-911543], for which the Kd (in experiment [1]; in experiment [2]; at Aurora kinase A; in experiment [3]; in experiment [4]; in experiment [5]) was > 30 µM (inactive) in each case. Further, the Kd in experiment [6] and in experiment [7] was > 30 µM (inactive) in each case.
Turning to `COc1cc2ncnc(Oc3cccc(NC(=O)Nc4cc(C(C)(C)C(F)(F)F)on4)c3)c2cc1OC` [CEP-32496], the Kd in experiment [1] is > 30 µM (inactive); in experiment [2] it was 0.98 µM (active); at Aurora kinase A, > 30 µM (inactive); in experiment [3], > 30 µM (inactive); in experiment [4] it was > 30 µM (inactive); in experiment [5] it was > 30 µM (inactive). Also, the Kd in experiment [6] and in experiment [7] was > 30 µM (inactive) each time.
